# From patent US10881110B2, “Herbicidal compositions comprising isoxazolo[5,4-b]pyridines” (BASF SE, priority 2014, dated 2021)
# Assays:
# Test in all cases: greenhouse post-emergence herbicidal test
# [1] = system: AMARE; assay type: in vivo, Amaranthus retroflexus
# Experimental: (§1) The culture containers used were plastic pots containing medium loamy sand with approximately 4.6% of humus and 69.9% sand as substrate. The seeds of the test plants were sown separately for each species.
# (§2) For the post-emergence treatment, the test plants were grown to a plant height of from 1 to 15 cm, depending on the plant habit, and only then treated with the active compounds which had been suspended or emulsified in water. To this end, the test plants were either sown directly, and grown in the same containers, or they were first grown separately as seedlings and transplanted into the test containers a few days prior to treatment.
# (§3) Depending on the species, the plants were kept at 10-25° C. and 20-35° C., respectively.
# (§4) The test period extended over 1 to 3 weeks. During this time, the plants were tended and their response to the individual treatments was evaluated 20 days after treatment except mentioned otherwise.
# (§5) Evaluation was carried out using a scale from 0 to 100. 100 means no emergence of the plants, or complete destruction of at least the above-ground parts, and 0 means no damage or normal course of growth.
# (§6) The respective stated components A and B, and, if appropriate, C, were formulated as a 10% by weight strength emulsion concentrate and, with addition of the amount of solvent system, introduced into the spray liquor used for applying the active compound. In the examples, the solvent used was water.
# (§7) In the examples below, using the method of S. R. Colby (1967) “Calculating synergistic and antagonistic responses of herbicide combinations”, Weeds 15, p. 22 ff., the value E, which is expected if the activity of the individual active compounds is only additive, was calculated. E=X+Y−(X·Y/100)
# [2] = system: POLAV; assay type: in vivo, Polygonum aviculare; parameters: key: rating on a scale from 0 to 100
# Experimental: as §1, §2, §3, §4, §5, §6, §7
# [3] = system: POLCO; assay type: in vivo, Polygonum convolvulus; parameters: key to herbicidal activity against POLCO found: rating on a scale from 0 to 100; settings: post emergence
# Summary of the method: (§8)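 Herbicidal activity scored on a 0 (no damage) to 100 (plants destroyed) scale, usually 20 days after water-based spraying of 1–15 cm plants grown in loamy sand at 10-25 °C or 20-35 °C depending on species. Components were applied from 10% emulsion concentrates; Colby's E=X+Y−(X·Y/100) gives the additive expectation.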
# [4] = system: CONAR; assay type: in vivo, Convolvulus arvensis; parameters: key: rating on a scale from 0 to 100
# Experimental: as §1, §2, §3, §4, §5, §6, §7
# [5] = system: GERDI; assay type: in vivo, Geranium dissectum; parameters: key to herbicidal activity against GERDI found: rating on a scale from 0 to 100; settings: post emergence
# Summary of the method: (§9)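 Seeds sown per species in loamy sand with roughly 4.6% humus; seedlings raised to 1 to 15 cm, then treated with water-borne spray of a 10% by weight emulsion concentrate. Response assessed on day 20 from 0 (normal growth) to 100 (destroyed).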
# [6] = system: MATCH; assay type: in vivo, Matricaria recutita; parameters: key to herbicidal activity against MATCH found: rating on a scale from 0 to 100; settings: post emergence
# Summary of the method: as §9
# [7] = system: PAPRH; assay type: in vivo, Papaver rhoeas; parameters: key: rating on a scale from 0 to 100
# Summary of the method: as §9
# [8] = system: SASKR; assay type: in vivo, Salsola kali; parameters: key: scale 0 to 100
# Experimental: as §1, §2, §3, §4, §5, §6, §7
# [9] = system: VIOAR; assay type: in vivo, Viola arvensis; parameters: key to herbicidal activity against VIOAR found / herbicidal activity against VIOLA found: rating on a scale from 0 to 100; settings: post emergence
# Summary of the method: as §8
# [10] = system: AMBEL; assay type: in vivo, Ambrosia artemisiifolia; parameters: key: rating on a scale from 0 to 100
# Experimental: as §1, §2, §3, §4, §5, §6, §7
# [11] = system: ERICA; assay type: in vivo, Conyza canadensis; parameters: key to herbicidal activity against ERICA found: rating on a scale from 0 to 100; settings: post emergence
# Summary of the method: as §9
# [12] = system: GALAP; assay type: in vivo, Galium aparine; settings: post emergence; application rate a.i.: I.1 31.25 g/ha, B.84 (paraquat-dichloride) 17.5 g/ha, alone or as mixture (composition 1.84)
# Summary of the method: as §8
# [13] = system: ALOMY; assay type: in vivo, Alopecurus myosuroides; parameters: key to herbicidal activity against ALOMY found: rating on a scale from 0 to 100; settings: single active, post emergence
# Summary of the method: as §9
# [14] = system: APESV; assay type: in vivo, Apera spica-venti; parameters: key to herbicidal activity against APESV found: rating on a scale from 0 to 100; settings: single active, 175 g/ha a.i., post emergence
# Summary of the method: as §9
# [15] = system: ECHCG; assay type: in vivo, Echinochloa crus-galli; parameters: key to herbicidal activity against ECHCG found / herbicidal activity against ECHCH found: scale 0 to 100; settings: single active, 175 g/ha a.i., post emergence
# Summary of the method: as §9
# [16] = system: IPOHE; assay type: in vivo, Ipomoea hederacea; parameters: key to herbicidal activity against IPOHE found: rating on a scale from 0 to 100; settings: post emergence
# Summary of the method: as §8
# [17] = system: CHEAL; assay type: in vivo, Chenopodium album; settings: a.i. g/ha: I.1 15.6, B.190 62.5, 20 days after treatment
# Experimental: as §1, §2, §3, §4, §5, §6, §7
# [18] = system: STEME; assay type: in vivo, Stellaria media; parameters: key: scale 0 to 100; settings: a.i. g/ha: I.1 31.25, B.190 62.5, 20 days after treatment
# Experimental: as §1, §2, §3, §4, §5, §6, §7
# [19] = a.i. g/ha: I.1 31.25, bentazon Na 125, 20 days after treatment
# [20] = application rate a.i.: I.1 31.25 g/ha, B.84 (paraquat-dichloride) 17.5 g/ha, alone or as mixture (composition 1.84)
# [21] = application rate a.i.: I.1 62.5 g/ha, B.84 (paraquat-dichloride) 17.5 g/ha, alone or as mixture (composition 1.84)
# [22] = a.i. g/ha: I.1 15.6, B.190 62.5, 20 days after treatment
# [23] = a.i. g/ha: I.1 31.25, B.190 62.5, 20 days after treatment
structure (smiles),measurement,setting,value
"CC(C)N1C(=O)c2ccccc2[N-]S1(=O)=O.[Na+] [bentazon Na, bentazon-sodium]",herbicidal activity against AMARE found,[1]; [19],75%
same,herbicidal activity against POLAV found,[2]; [19],40%
same,herbicidal activity against POLCO found,[3]; [19],40%
Cc1nn(C)c(O)c1C(=O)c1ccc(C(F)(F)F)cc1S(C)(=O)=O [pyrasulfatole],herbicidal activity against CONAR found,[4]; 10 g/ha a.i.,60
same,herbicidal activity against CONAR found,[4]; 20 g/ha a.i.,65
same,herbicidal activity against CONAR found,[4]; 40 g/ha a.i.,85
same,herbicidal activity against GERDI found,[5]; 40 g/ha a.i.,50
same,herbicidal activity against MATCH found,[6]; 10 g/ha a.i.,50
same,herbicidal activity against MATCH found,[6]; 40 g/ha a.i.,50
same,herbicidal activity against PAPRH found,[7]; 10 g/ha a.i.,50
same,herbicidal activity against PAPRH found,[7]; 20 g/ha a.i.,65
same,herbicidal activity against PAPRH found,[7]; 40 g/ha a.i.,65
same,herbicidal activity against POLAV found,[2]; 20 g/ha a.i.,70
same,herbicidal activity against SASKAR found,[8]; 10 g/ha a.i.,90
same,herbicidal activity against VIOAR found,[9]; 10 g/ha a.i.,0
same,herbicidal activity against VIOAR found,[9]; 20 g/ha a.i.,40
same,herbicidal activity against VIOAR found,[9]; 40 g/ha a.i.,60
"C[n+]1ccc(-c2cc[n+](C)cc2)cc1 [B.84, paraquat-dichloride]",herbicidal activity against AMBEL found,[10]; [20],90
same,herbicidal activity against CONAR found,[4]; [21],10
same,herbicidal activity against ERICA found,[11]; [20],35
same,herbicidal activity against GALAP found,[12],55
same,herbicidal activity against MATCH found,[6]; [21],80
same,herbicidal activity against POLCO found,[3]; [21],30
same,herbicidal activity against SASKR found,[8]; [20],70
same,herbicidal activity against VIOAR found,[9]; [20],55
same,herbicidal activity against VIOAR found,[9]; [21],55
COCC(C)N(C(=O)CCl)c1c(C)csc1C (stereo not drawn) [DMTA],herbicidal activity against ALOMY found,[13]; 175 g/ha a.i.,0
same,herbicidal activity against ALOMY found,[13]; 350 g/ha a.i.,45
same,herbicidal activity against AMBEL found,"[10]; single active, 175 g/ha a.i.",0
same,herbicidal activity against AMBEL found,"[10]; single active, 350 g/ha a.i.",20
same,herbicidal activity against APESV found,[14],95
same,herbicidal activity against ECHCG found,[15],90
same,herbicidal activity against ERICA found,"[11]; single active, 175 g/ha a.i.",15
same,herbicidal activity against GERDI found,"[5]; single active, 175 g/ha a.i.",30
same,herbicidal activity against GERDI found,"[5]; single active, 350 g/ha a.i.",60
same,herbicidal activity against IPOHE found,"[16]; single active, 350 g/ha a.i.",25
same,herbicidal activity against MATCH found,"[6]; single active, 175 g/ha a.i.",30
same,herbicidal activity against MATCH found,"[6]; single active, 350 g/ha a.i.",30
same,herbicidal activity against POLCO found,"[3]; single active, 175 g/ha a.i.",0
same,herbicidal activity against POLCO found,"[3]; single active, 350 g/ha a.i.",25
same,herbicidal activity against VIOLA found,"[9]; single active, 175 g/ha a.i.",0
"CS(=O)(=O)c1ccc(C(=O)C2C(=O)CCCC2=O)c([N+](=O)[O-])c1 [B.101, mesotrione]",herbicidal activity against AMBEL found,[10]; 9.375 g/ha a.i.,80
same,pest or weed control at 9.375 g/ha,"[11]; Erigeron canadensis, post-emergence, 480 h, 9.375 g/ha a.i., read-out: herbicidal activity against ERICA found",80%
same,pest or weed control at 9.375 g/ha,"[5]; Geranium dissectum, post-emergence, 480 h, 9.375 g/ha a.i., read-out: herbicidal activity against GERDI found",0%
same,pest or weed control at 9.375 g/ha,"[6]; Matricaria chamomilla, post-emergence, 480 h, 9.375 g/ha a.i., read-out: herbicidal activity against MATCH found",75%
same,herbicidal activity against PAPRH found,[7]; 9.375 g/ha a.i.,35
same,herbicidal activity against SASKR found,[8]; 9.375 g/ha a.i.,75
"Cc1ccc(NC(=O)N(C)C)cc1Cl [B.190, chlorotoluron]",herbicidal activity against AMARE found,[1]; [22],40%
same,herbicidal activity against AMARE found,[1]; [23],40%
same,herbicidal activity against CHEAL found,[17],95%
same,herbicidal activity against GERDI found,[5]; [23],60%
same,herbicidal activity against IPOHE found,[16]; [22],60%
same,herbicidal activity against IPOHE found,[16]; [23],60%
same,herbicidal activity against POLAV found,[2]; [22],50%
same,herbicidal activity against POLCO found,[3]; [22],50%
same,herbicidal activity against POLCO found,[3]; [23],50%
same,herbicidal activity against STEME found,[18],70%
